Measurements: patent publication US20250129430A1, “HIGH ATP-AFFINITY PROTEIN AS THERAPEUTIC TARGET FOR INTRACTABLE CANCER MOLECULAR SUBTYPES AND INHIBITOR THEREOF” (VeraVerse Co., Ltd., priority 2021, published 2025)

Assays:
Experiment in all cases: Cell viability drug screen, 12-point dose-response AUC
Format in all cases: cell-based, human
[1] = tested on: AGS; conditions: AGS cells (non-SEM subtype); 72 hours
Procedure: (§1) An FDA-approved small-molecule pharmacological compound (#L1300) and an anticancer compound for research (#L2000) were purchased from Selecckchem and a 10 mM solution was prepared in DMSO. A total of 1,345 compounds were tested the cell viability of the seven EMT gastric cancer cell lines.
(§2) Cells cultured for cell-based drug assay were inoculated into a 96-well white optical plate (Corning) at 5×10^3 cells per well. After 24 hours after inoculation, a 2.5 MJT (primary screen) or a half-log 12-serial diluent (secondary screen) of the pharmacological compound contained in DMSO is added to the cells with a robot using a BioMek FXp liquid processor (Beckman) to add to the cells at 50 mM. The final drug concentration in the 5 ns range and the DMSO specification control (0.5%) were calculated. The cells were then further incubated at 37° C. in a 5% CO2 incubator for 72 hours prior to measuring cell viability using the extra-GLO assay kit (Promega). The luminescent properties were measured after 15 min incubation at room temperature using a plate stacker equipped with a plate stacker. The normalized viability for the DMSO-based control was measured to generate a cell line-specific 12-point dose-response curve for each pharmacological compound, and then the area under the curve (AUC) was calculated using a trapezoidal method. […] The results of the repeated experiments were averaged to generate AUC values for each cell line for each compound.

[2] = tested on: Hs746T; conditions: Hs746T cells (SEM subtype); 72 hours
Procedure: as §1, §2

[3] = tested on: KATO3; conditions: KATO3 cells; 72 hours
Procedure: as §1, §2

[4] = tested on: MKN1; conditions: MKN1 cells; 72 hours
Procedure: as §1, §2

[5] = tested on: MKN28; conditions: MKN28 cells; 72 hours
Procedure: as §1, §2

[6] = tested on: MKN45; conditions: MKN45 cells (non-SEM subtype); 72 hours
Procedure: as §1, §2

[7] = tested on: MKN74; conditions: MKN74 cells; 72 hours
Procedure: as §1, §2

[8] = tested on: NCC19; conditions: NCC19 cells; 72 hours
Procedure: as §1, §2

[9] = tested on: NCC20; conditions: NCC20 cells; 72 hours
Procedure: as §1, §2

[10] = tested on: NCC24; conditions: NCC24 cells; 72 hours
Procedure: as §1, §2

[11] = tested on: NCC59; conditions: NCC59 cells; 72 hours
Procedure: as §1, §2

[12] = tested on: NCI_N87; conditions: NCI_N87 cells; 72 hours
Procedure: as §1, §2

[13] = tested on: OCUM1; conditions: OCUM1 cells; 72 hours
Procedure: as §1, §2

[14] = tested on: SK4; conditions: SK4 cells (SEM subtype); 72 hours
Procedure: as §1, §2

[15] = tested on: SNU16; conditions: SNU16 cells; 72 hours
Procedure: as §1, §2

[16] = tested on: SNU1750; conditions: SNU1750 cells (SEM subtype); 72 hours
Procedure: as §1, §2

[17] = tested on: SNU1967; conditions: SNU1967 cells; 72 hours
Procedure: as §1, §2

[18] = tested on: SNU1; conditions: SNU1 cells; 72 hours
Procedure: as §1, §2

[19] = tested on: SNU216; conditions: SNU216 cells (non-SEM subtype); 72 hours
Procedure: as §1, §2

[20] = tested on: SNU484; conditions: SNU484 cells (SEM subtype); 72 hours
Procedure: as §1, §2

[21] = tested on: SNU601; conditions: SNU601 cells; 72 hours
Procedure: as §1, §2

[22] = tested on: SNU620; conditions: SNU620 cells; 72 hours
Procedure: as §1, §2

[23] = tested on: SNU638; conditions: SNU638 cells; 72 hours
Procedure: as §1, §2

[24] = tested on: SNU668; conditions: SNU668 cells (SEM subtype); 72 hours
Procedure: as §1, §2

[25] = tested on: SNU719; conditions: SNU719 cells; 72 hours
Procedure: as §1, §2

[26] = tested on: YCC11; conditions: YCC11 cells (SEM subtype); 72 hours
Procedure: as §1, §2

[27] = tested on: YCC2; conditions: YCC2 cells; 72 hours
Procedure: as §1, §2

[28] = tested on: YCC3; conditions: YCC3 cells; 72 hours
Procedure: as §1, §2

[29] = tested on: FU97; set-up: Average Area Under the Viability Curve (AUC), AUC norm value: scale not given here; conditions: FU97 cells; 72 hours
Procedure: Cells cultured for cell-based drug assay were inoculated into a 96-well white optical plate (Corning) at 5×10^3 cells per well. After 24 hours after inoculation, a 2.5 MJT (primary screen) or a half-log 12-serial diluent (secondary screen) of the pharmacological compound contained in DMSO is added to the cells with a robot using a BioMek FXp liquid processor (Beckman) to add to the cells at 50 mM. The final drug concentration in the 5 ns range and the DMSO specification control (0.5%) were calculated. The cells were then further incubated at 37° C. in a 5% CO2 incubator for 72 hours prior to measuring cell viability using the extra-GLO assay kit (Promega). The luminescent properties were measured after 15 min incubation at room temperature using a plate stacker equipped with a plate stacker. The normalized viability for the DMSO-based control was measured to generate a cell line-specific 12-point dose-response curve for each pharmacological compound, and then the area under the curve (AUC) was calculated using a trapezoidal method.

SMILES: Nc1ccn([C@@H]2O[C@H](CO)[C@@H](O)C2(F)F)c(=O)n1 [Gemcitabine (Gemzar), Gemcitabine]
- Average Area Under the Viability Curve (AUC), AUC norm value [1]: −2.364
- Average Area Under the Viability Curve (AUC), AUC norm value [2]: 1.71
- Average Area Under the Viability Curve (AUC), AUC norm value [3]: 4.1466
- Average Area Under the Viability Curve (AUC), AUC norm value [4]: −0.9169
- Average Area Under the Viability Curve (AUC), AUC norm value [5]: 1.089
- Average Area Under the Viability Curve (AUC), AUC norm value [6]: 1.053
- Average Area Under the Viability Curve (AUC), AUC norm value [7]: −1.402
- Average Area Under the Viability Curve (AUC), AUC norm value [8]: 1.697
- Average Area Under the Viability Curve (AUC), AUC norm value [9]: −0.9089
- Average Area Under the Viability Curve (AUC), AUC norm value [10]: −1.1
- Average Area Under the Viability Curve (AUC), AUC norm value [11]: 3.024
- Average Area Under the Viability Curve (AUC), AUC norm value [12]: 1.33
- Average Area Under the Viability Curve (AUC), AUC norm value [13]: −1.402
- Average Area Under the Viability Curve (AUC), AUC norm value [14]: −0.8764
- Average Area Under the Viability Curve (AUC), AUC norm value [15]: 0.514
- Average Area Under the Viability Curve (AUC), AUC norm value [16]: 0
- Average Area Under the Viability Curve (AUC), AUC norm value [17]: −4.705
- Average Area Under the Viability Curve (AUC), AUC norm value [18]: −0.3367
- Average Area Under the Viability Curve (AUC), AUC norm value [19]: 1.837
- Average Area Under the Viability Curve (AUC), AUC norm value [20]: −0.2757
- Average Area Under the Viability Curve (AUC), AUC norm value [21]: 0.2471
- Average Area Under the Viability Curve (AUC), AUC norm value [22]: −1.64
- Average Area Under the Viability Curve (AUC), AUC norm value [23]: −2.404
- Average Area Under the Viability Curve (AUC), AUC norm value [24]: −1.312
- Average Area Under the Viability Curve (AUC), AUC norm value [25]: 3.628
- Average Area Under the Viability Curve (AUC), AUC norm value [26]: −1.649
- Average Area Under the Viability Curve (AUC), AUC norm value [27]: 0.1111
- Average Area Under the Viability Curve (AUC), AUC norm value [28]: 0.1853
- Average Area Under the Viability Curve (AUC), AUC norm value [29]: 1.888
